Calls of active or inactive are those of the source.
Columns and labels:
[1] = tested on: MCF7; test: Cytotoxicity activity was measured against human breast cancer cell line MCF-7 with respect to ED50 of paclitaxel (2 nM); IA inactive; type: functional, cell-based
[2] = tested on: MCF7; test: Cytotoxicity activity was measured against resistant human breast cancer cell line MCF-7 with respect to ED50 of paclitaxel (2200-3700 nM); IA inactive; type: functional, cell-based
[3] = Ratio in tubulin to that of paclitaxel (0.3 uM) in microtubule assembly assay; IA inactive; type: functional

CC(=O)O[C@H]1C(=O)[C@]2(C)[C@@H](OC(=O)CCc3ccccc3)C[C@H]3OC[C@@]3(OC(C)=O)[C@H]2[C@H](OC(=O)c2ccccc2)[C@]2(O)C[C@H](OC(=O)[C@H](O)[C@@H](NC(=O)c3ccccc3)c3ccccc3)C(C)=C1C2(C)C
inactive: ED50 [1] | ED50 [2] | Ratio [3]
